From PMC12533803, “Rotenoids from the Roots of Vicia faba L. (Fabaceae): Structural Characterization, Cytotoxic Effects, and Molecular Docking” (Chemistry & Biodiversity, 2025)

Experiments:
[1] = test system: MCF‐7 (breast adenocarcinoma) cell line; test: MTT cytotoxicity assay, MCF-7; assay type: cell-based, human; settings: for cytotoxic activity MCF‐7: MTT, 0.0032 to 50 µM, 72 h
Method: (§1) ATCC CCL 247), 501Mel (melanoma; RRID: CVCL_4633), and MCF‐7 (breast adenocarcinoma; ATCC HTB 22), along with non‐tumor cells line NIH/3T3 (mouse embryonic fibroblast; ATCC CRL 1658). […] Cells were kept at 37°C in a humidified atmosphere containing 5% CO2. […] At the end of the incubation period, the culture medium was replaced with a fresh medium containing MTT solution (0.5 mg/mL) and further incubated for 3 h. The MTT solution was then removed, and the formazan crystals formed were dissolved in 150 µL of DMSO. Absorbance for each well was measured at 570 nm, and then the values thereof were normalized in the percentage of viable cells based on that of the negative control.

[2] = test system: NIH/3T3 (mouse embryonic fibroblast) cell line; test: MTT cytotoxicity assay, non-tumor NIH/3T3; assay type: cell-based; settings: for cytotoxic activity NIH/3T3: 0.0032 to 50 µM, 72 h
Method: as §1

[3] = test system: 501Mel (melanoma) cell line; test: MTT cytotoxicity assay, 501Mel; assay type: cell-based, human; settings: for cytotoxic activity 501Mel: 0.0032 to 50 µM, 72 h
Method: as §1

[4] = test system: HCT‐116 (human colorectal carcinoma) cell line; test: MTT cytotoxicity assay, HCT-116; assay type: cell-based; settings: for cytotoxic activity HCT‐116: MTT, 0.0032 to 50 µM, 72 h
Method: as §1

Compound | cytotoxic activity MCF‐7 [1] | cytotoxic activity NIH/3T3 [2] | cytotoxic activity 501Mel ([3]; MTT) | cytotoxic activity HCT‐116 [4] | Selectivity Index (SI) MCF‐7 ([1]; MCF-7 versus NIH/3T3) | IC50 ([2]; Mus musculus, NIH3T3, 72 h incubation, non-tumor cells) | Selectivity Index (SI) 501Mel ([3]; 501Mel versus NIH/3T3) | IC50 ([3]; Homo sapiens, MTT, 72 h incubation) | Selectivity Index (SI) HCT‐116 ([4]; HCT-116 versus NIH/3T3)
COc1ccc(-c2coc3cc(OC)c(O)cc3c2=O)cc1 [Compound 2, Alfalone] | no cytotoxic activity | no cytotoxic activity | no cytotoxic activity | no cytotoxic activity |  |  |  |  | 
COc1ccc(-c2coc3c(OC)c(O)ccc3c2=O)cc1 [Compound 3, 8‐O‐methylretusin] | no cytotoxic activity | no cytotoxic activity | no cytotoxic activity | no cytotoxic activity |  |  |  |  | 
COc1cccc2c1C(=O)c1c(O)c3c(c(O)c1C2=O)C[C@@](O)(C(=O)CO)C[C@@H]3O[C@H]1C[C@H](N)[C@H](O)[C@H](C)O1 [Doxorubicin, reference compound] |  |  |  |  | 11.67 | 350 nM | 2.91 | 120 nM | 7.0
